We go through 16 molecules from ChEMBL document CHEMBL1152590, “Computational modeling of novel inhibitors targeting the Akt pleckstrin homology domain” (Bioorg Med Chem, 2009).

The structures appear in SMILES notation.

The data set has as its system Caco-2. Briefly: Permeability across human Caco-2 cells. Background: Caco-2 cells form a polarised layer with tight junctions and transporters.
In turn, `CCCc1nc2c(C)cc(-c3nc4ccccc4n3C)cc2n1Cc1ccc(-c2ccccc2C(=O)O)cc1` came in with a logPapp of -4.82.
For `CCOC(=O)[C@H](CCc1ccccc1)N[C@@H](C)C(=O)N1CCC[C@H]1C(=O)O` the value was -5.64; for `CN/C(=N/CCSCc1nc[nH]c1C)NC#N` [CIMETIDINE], -5.89; for `Clc1cccc(Cl)c1N=C1NCCN1` [CLONIDINE], -4.59.
For `NCCc1ccc(O)c(O)c1` [DOPAMINE] the value was -5.03; for `CNC[C@H](O)c1ccc(O)c(O)c1` [EPINEPHRINE], -6.02; for `CN1CCC[C@H]1c1cccnc1` [NICOTINE], -4.71.
To `C=CCOc1ccccc1OCC(O)CNC(C)C` (stereo unspecified) [OXPRENOLOL] belongs -4.68; to `c1ccc(C2(N3CCCCC3)CCCCC2)cc1` [PHENCYCLIDINE], -4.61; to `CC(C)NCC(O)COc1cccc2[nH]ccc12` (stereo unspecified) [PINDOLOL], -4.78.
As to `CC(=O)[C@H]1CC[C@H]2[C@@H]3CCC4=CC(=O)CC[C@]4(C)[C@H]3CC[C@]12C` [PROGESTERONE], the logPapp is -4.37.
For `CNC(=C[N+](=O)[O-])NCCSCc1ccc(CN(C)C)o1` [RANITIDINE] the value was -6.31; for `O=C(O)c1ccccc1O` [SALICYLIC ACID], -4.79.
Consider `O=C(O)c1cc(/N=N/c2ccc(S(=O)(=O)Nc3ccccn3)cc2)ccc1O` [SULFASALAZINE], for which the logPapp is recorded as -6.33.
To `Cn1c(=O)c2[nH]cnc2n(C)c1=O.O` [THEOPHYLLINE] belongs -4.35.
For `CC(C)(C)NC[C@H](O)COc1nsnc1N1CCOCC1` [TIMOLOL] the value was -4.85.
